# “Also recorded” adds a separate entry of the source.
# Legend:
# [1] = system: colorectal cancer cells; test: Cell growth inhibition (Cell-titer Glo, ATP); format: cell-based; details: 24, 48, and 72 hours of drug treatment; normalized to DMSO control
# Description: Tumor cells were treated with titrations of irinotecan, oxaliplatin, or vehicle control and monitored for growth after 24, 48, and 72 hours of drug treatment. Cell growth was indirectly determined using a commercially available reagent (Promega, Cell-titer Glo®) which measures intracellular adenosine triphosphate (ATP) levels and directly correlates to the number of live cells. […] DMSO=dimethyl sulfoxide; Oxa=oxaliplatin; SN-38=irinotecan.
# [2] = system: LS 174T cells; test: Flow cytometry of prophagocytic receptors (CALR, PS) after 24 hours of drug; format: cell-based; details: 24 hours incubation; CALR and PS staining
# Description: (§1) A. LS 174T cells were incubated with titrations of irinotecan for 24 hours, washed, and stained for CALR and PS. Flow cytometry was used to analyze and quantify the frequency of stained cells. The shaded areas indicate reported IC50 for each drug. B. LS-174T or HCT-116 cells were pretreated for 24 hours with irinotecan or oxaliplatin at the indicated concentration. The tumor cells were washed, CFSE labeled and cocultured with monocyte-derived macrophages at a 2:1 target to effector ratio for 2 hours. The phagocytic index, defined as the percentage of the macrophages that engulfed tumor cells out of total macrophages, was quantified using flow cytometry. 5F9, Magro=magrolimab; CALR=calreticulin; CFSE=carboxyfluorescein succinimidyl ester; hr=hour; IC50=half-maximal inhibitory concentration; MFI=median fluorescence intensity; PBS=phosphate buffered saline; PS=phosphatidyl serine; SN 38=irinotecan.
# [3] = system: LS-174T or HCT-116 cells; test: In vitro phagocytosis of pretreated tumor cells by monocyte-derived macrophages; format: cell-based; details: 24 hours pretreatment; 2:1 target to effector ratio, 2 hours coculture
# Description: as §1
# [4] = system: mCRC; details: cited from earlier work
# [5] = Clinical safety of magrolimab; details: human, in vivo
# Description: In the first-in-human study of magrolimab in patients with solid tumors and lymphomas, after an initial priming dose of 1 mg/kg on the first day, magrolimab was tested as a monotherapy at weekly doses of up to 45 mg/kg. The use of an initial 1 mg/kg priming dose was integrated into the dosing regimen to mitigate the on-target anemia induced by CD47 blockade. An initial priming dose leads to elimination of aged RBCs that are sensitive to CD47 blockade and triggers reticulocytosis of young RBCs that are not affected by CD47 blockade (Chen, et al., Blood (ASH Annual Meeting Abstracts) (2018) 132 (Suppl 1):2327). […] Based on PK-PD modeling, a maintenance dose of 30 mg/kg every 2 weeks is expected to provide more than 90% occupancy of the CD47 receptor in peripheral blood and tumor tissues and thus is expected to provide maximal efficacy while maintaining adequate safety. In solid tumors where the combination therapy is given according to 3-week cycles, dosing of magrolimab every 3 weeks optimizes patient and caregiver convenience. […]
# Up to 6 other patients will then be enrolled and evaluated at a lower dose level in the same manner. • Once the RP2D is determined, the sponsor will open the Randomized Cohort.
# [6] = with 1 mg/kg priming dose, then repeated therapeutic doses; cited from earlier work
# [7] = continuation on bevacizumab versus standard chemotherapy alone
molecule,measurement,setting,value
O=C1[O][Pt]2([NH][C@@H]3CCCC[C@H]3[NH]2)[O]C1=O [oxaliplatin],growth inhibition,[1],growth inhibition
CCc1c2c(nc3ccc(OC(=O)N4CCC(N5CCCCC5)CC4)cc13)-c1cc3c(c(=O)n1C2)COC(=O)[C@]3(O)CC [irinotecan],cell surface expression of prophagocytic receptors,[2],upregulates the expression of prophagocytic receptors; also recorded: more effective than oxaliplatin
same,phagocytosis of colorectal cancer cells,[3],promotes the in vitro phagocytosis of colorectal cancer cells; also recorded: more effective than oxaliplatin
same,growth inhibition,[1],growth inhibition; also recorded: more likely to undergo growth inhibition
bevacizumab: humanized monoclonal antibody targeting circulatory VEGF and preventing tumor angiogenesis,PFS,"[4]; continuation on bevacizumab after progression on first-line chemotherapy, standard chemotherapy alone 4.1 months",5.7 months
same,OS,"[4]; continuation on bevacizumab after progression on first-line chemotherapy, standard chemotherapy alone 9.9 months",11.2 months
same,OS HR,[4]; [7],0.81
same,PFS HR,[4]; [7],0.68
magrolimab: humanized anti-CD47 mAb (human IgG4) that blocks the interaction of CD47 with its receptor and enables phagocytosis of human cancer cells,dose-dependent toxicities,[5],no dose-dependent toxicities have been observed
same,anemia,[6],"initial, transient, and mild anemia that generally normalizes back to baseline over several weeks"

# From patent US20230365682A1, “COMBINATION THERAPY FOR TREATING COLORECTAL CANCER” (Gilead Sciences, Inc., priority 2022, published 2023)
